Results published in ChEMBL document CHEMBL3112395, “Synthesis and structure-activity relationship studies of N-terminal analogues of the antimicrobial peptide tridecaptin A(1)” (J Med Chem, 2014).
≈ marks a conversion by molar mass, not a printed value.

How the values were obtained:
[1] = tested on: Salmonella enterica; assay: Antibacterial activity against Salmonella enterica ATCC 13311 assessed as growth inhibition by broth dilution method; format: functional
[2] = tested on: Listeria monocytogenes; assay: Antibacterial activity against Listeria monocytogenes ATCC […] assessed as growth inhibition by broth dilution method; format: functional
[3] = tested on: Pseudomonas aeruginosa; assay: Antibacterial activity against Pseudomonas aeruginosa ATCC 27853 assessed as growth inhibition by broth dilution method; format: functional
[4] = tested on: Escherichia coli; assay: Antibacterial activity against Escherichia coli ATCC 25922 assessed as growth inhibition by broth dilution method; format: functional
[5] = Cytotoxicity against HEK293 cells assessed as growth inhibition after 48 hrs by MTT assay; format: cell-based; conditions: human, read-out: MIC
[6] = tested on: Enterococcus faecium; assay: Antibacterial activity against Enterococcus faecium ATCC 19434 assessed as growth inhibition by broth dilution method; format: functional
[7] = tested on: Campylobacter jejuni; assay: Antibacterial activity against Campylobacter jejuni NCTC 11168 assessed as growth inhibition by broth dilution method; format: functional
[8] = tested on: Klebsiella pneumoniae; assay: Antibacterial activity against Klebsiella pneumoniae ATCC 13883 assessed as growth inhibition by broth dilution method; format: functional
[9] = tested on: Staphylococcus aureus; assay: Antibacterial activity against Staphylococcus aureus ATCC 29213 assessed as growth inhibition by broth dilution method; format: functional
[10] = tested on: Enterococcus faecalis; assay: Antibacterial activity against Enterococcus faecalis ATCC 29212 assessed as growth inhibition by broth dilution method; format: functional
[11] = Hemolytic activity in rabbit erythrocytes at 83 ug/mL after 30 mins relative to control; format: ADME, cell-based, Oryctolagus cuniculus, Erythrocyte; conditions: read-out: Activity
[12] = tested on: Acinetobacter baumannii; assay: Antibacterial activity against Acinetobacter baumannii ATCC 19606 assessed as growth inhibition by broth dilution method; format: functional
[13] = tested on: Escherichia coli; assay: Antibacterial activity against Escherichia coli O157:H7 assessed as growth inhibition by broth dilution method; format: functional
[14] = tested on: Klebsiella pneumoniae; assay: Antibacterial activity against multi-drug resistant Klebsiella pneumoniae KpCG clinical isolate assessed as growth inhibition by broth dilution method; format: functional
[15] = Antibacterial activity against multi-drug resistant Clostridium difficile 630 assessed as growth inhibition by broth dilution method; format: functional, Clostridioides difficile 630; conditions: Clostridioides difficile
[16] = tested on: Enterobacter cloacae; assay: Antibacterial activity against multi-drug resistant Enterobacter cloacae 849 clinical isolate assessed as growth inhibition by broth dilution method; format: functional

| Structure (SMILES) | MIC [1] | MIC [2] | MIC [3] | MIC [4] | MCC at 48 h [5] | MIC [6] | MIC [7] | MIC [8] | MIC [9] | MIC [10] | hemolysis at 0.5 h, 83 ug/mL [11] | MIC [12] | MIC [13] | MIC [14] | MIC [15] | MIC [16] |
| --- | --- | --- | --- | --- | --- | --- | --- | --- | --- | --- | --- | --- | --- | --- | --- | --- |
| CC[C@H](C)CC[C@@H](O)CC(=O)N[C@@H](C(=O)N[C@H](CCN)C(=O)NCC(=O)N[C@H](CO)C(=O)N[C@H](Cc1c[nH]c2ccccc12)C(=O)N[C@@H](CO)C(=O)N[C@@H](CCN)C(=O)N[C@H](CCN)C(=O)N[C@@H](Cc1ccccc1)C(=O)N[C@@H](CCC(=O)O)C(=O)N[C@H](C(=O)N[C@@H](C(=O)N[C@@H](C)C(=O)O)[C@@H](C)CC)C(C)C)C(C)C | 6.25 µg/mL (≈ 4.03 µM) | 50 µg/mL (≈ 32.2 µM) | 50 µg/mL (≈ 32.2 µM) | 3.13 µg/mL (≈ 2.02 µM) | 200 µg/mL | > 100 µg/mL | 1.56 µg/mL (≈ 1.01 µM) | 3.13 µg/mL (≈ 2.02 µM) | > 100 µg/mL | > 100 µg/mL | 3.2% | 12.5 µg/mL (≈ 8.06 µM) | – | – | – | – |
| CC[C@@H](C)CC[C@@H](O)CC(=O)N[C@@H](C(=O)N[C@H](CCN)C(=O)NCC(=O)N[C@H](CO)C(=O)N[C@H](Cc1c[nH]c2ccccc12)C(=O)N[C@@H](CO)C(=O)N[C@@H](CCN)C(=O)N[C@H](CCN)C(=O)N[C@@H](Cc1ccccc1)C(=O)N[C@@H](CCC(=O)O)C(=O)N[C@H](C(=O)N[C@@H](C(=O)N[C@@H](C)C(=O)O)[C@@H](C)CC)C(C)C)C(C)C | 6.25 µg/mL (≈ 4.03 µM) | 100 µg/mL (≈ 64.5 µM) | 50 µg/mL (≈ 32.2 µM) | 3.13 µg/mL (≈ 2.02 µM) | – | > 100 µg/mL | 3.13 µg/mL (≈ 2.02 µM) | 6.25 µg/mL (≈ 4.03 µM) | > 100 µg/mL | > 100 µg/mL | – | 12.5 µg/mL (≈ 8.06 µM) | – | – | – | – |
| CC[C@H](C)[C@@H](NC(=O)[C@@H](NC(=O)[C@H](CCC(=O)O)NC(=O)[C@H](Cc1ccccc1)NC(=O)[C@@H](CCN)NC(=O)[C@H](CCN)NC(=O)[C@H](CO)NC(=O)[C@@H](Cc1c[nH]c2ccccc12)NC(=O)[C@@H](CO)NC(=O)CNC(=O)[C@@H](CCN)NC(=O)[C@H](N)C(C)C)C(C)C)C(=O)N[C@@H](C)C(=O)O | 100 µg/mL (≈ 71.7 µM) | > 100 µg/mL | 100 µg/mL (≈ 71.7 µM) | 100 µg/mL (≈ 71.7 µM) | – | > 100 µg/mL | > 100 µg/mL | 50 µg/mL (≈ 35.9 µM) | > 100 µg/mL | > 100 µg/mL | 0.5% | > 100 µg/mL | – | – | – | – |
| CCCC(=O)N[C@@H](C(=O)N[C@H](CCN)C(=O)NCC(=O)N[C@H](CO)C(=O)N[C@H](Cc1c[nH]c2ccccc12)C(=O)N[C@@H](CO)C(=O)N[C@@H](CCN)C(=O)N[C@H](CCN)C(=O)N[C@@H](Cc1ccccc1)C(=O)N[C@@H](CCC(=O)O)C(=O)N[C@H](C(=O)N[C@@H](C(=O)N[C@@H](C)C(=O)O)[C@@H](C)CC)C(C)C)C(C)C | 25 µg/mL (≈ 17.1 µM) | > 100 µg/mL | > 100 µg/mL | 12.5 µg/mL (≈ 8.53 µM) | – | > 100 µg/mL | 12.5 µg/mL (≈ 8.53 µM) | 25 µg/mL (≈ 17.1 µM) | > 100 µg/mL | > 100 µg/mL | 0.8% | 100 µg/mL (≈ 68.3 µM) | – | – | – | – |
| CCCCCCCC(=O)N[C@@H](C(=O)N[C@H](CCN)C(=O)NCC(=O)N[C@H](CO)C(=O)N[C@H](Cc1c[nH]c2ccccc12)C(=O)N[C@@H](CO)C(=O)N[C@@H](CCN)C(=O)N[C@H](CCN)C(=O)N[C@@H](Cc1ccccc1)C(=O)N[C@@H](CCC(=O)O)C(=O)N[C@H](C(=O)N[C@@H](C(=O)N[C@@H](C)C(=O)O)[C@@H](C)CC)C(C)C)C(C)C | 6.25 µg/mL (≈ 4.11 µM) | 25 µg/mL (≈ 16.4 µM) | 25 µg/mL (≈ 16.4 µM) | 3.13 µg/mL (≈ 2.06 µM) | 100 µg/mL | 50 µg/mL (≈ 32.9 µM) | 0.78 µg/mL (≈ 0.513 µM) | 3.13 µg/mL (≈ 2.06 µM) | 100 µg/mL (≈ 65.8 µM) | 100 µg/mL (≈ 65.8 µM) | 4.7% | 12.5 µg/mL (≈ 8.22 µM) | 0.43 µg/mL (≈ 0.283 µM) | 2.33 µg/mL (≈ 1.53 µM) | 12.7 µg/mL (≈ 8.35 µM) | 0.43 µg/mL (≈ 0.283 µM) |
| CCCCCCCCCCCC(=O)N[C@@H](C(=O)N[C@H](CCN)C(=O)NCC(=O)N[C@H](CO)C(=O)N[C@H](Cc1c[nH]c2ccccc12)C(=O)N[C@@H](CO)C(=O)N[C@@H](CCN)C(=O)N[C@H](CCN)C(=O)N[C@@H](Cc1ccccc1)C(=O)N[C@@H](CCC(=O)O)C(=O)N[C@H](C(=O)N[C@@H](C(=O)N[C@@H](C)C(=O)O)[C@@H](C)CC)C(C)C)C(C)C | 50 µg/mL (≈ 31.7 µM) | 50 µg/mL (≈ 31.7 µM) | > 100 µg/mL | 12.5 µg/mL (≈ 7.93 µM) | – | 100 µg/mL (≈ 63.4 µM) | 0.4 µg/mL (≈ 0.254 µM) | 12.5 µg/mL (≈ 7.93 µM) | > 100 µg/mL | > 100 µg/mL | 82.2% | 50 µg/mL (≈ 31.7 µM) | – | – | – | – |
| CC[C@H](C)[C@@H](NC(=O)[C@@H](NC(=O)[C@H](CCC(=O)O)NC(=O)[C@H](Cc1ccccc1)NC(=O)[C@@H](CCN)NC(=O)[C@H](CCN)NC(=O)[C@H](CO)NC(=O)[C@@H](Cc1c[nH]c2ccccc12)NC(=O)[C@@H](CO)NC(=O)CNC(=O)[C@@H](CCN)NC(=O)[C@H](NC(=O)OCC1c2ccccc2-c2ccccc21)C(C)C)C(C)C)C(=O)N[C@@H](C)C(=O)O | 6.25 µg/mL (≈ 3.87 µM) | 12.5 µg/mL (≈ 7.73 µM) | > 100 µg/mL | 6.25 µg/mL (≈ 3.87 µM) | – | 25 µg/mL (≈ 15.5 µM) | 0.78 µg/mL (≈ 0.482 µM) | 6.25 µg/mL (≈ 3.87 µM) | 100 µg/mL (≈ 61.8 µM) | 50 µg/mL (≈ 30.9 µM) | 100% | 12.5 µg/mL (≈ 7.73 µM) | – | – | – | – |
